These results are taken from publication PMC5623053 (Frontiers in Molecular Biosciences, 2017).

“Also recorded” adds a separate entry of the source. Bridges are numbered along the chain shown (N, C = ends).

The subject of test [1] is Grb14. To be noted: 79 SH2 domains, 100 μg peptide in PBST, duplicate spots; not quantitative. The method, then:
(§1) The microarray was conducted by the Protein Array and Analysis Core at the MD Anderson Cancer Center (University of Texas, USA) using standard protocols. […] Each SH2 domain was spotted in duplicate.

Test [2] concerns Grb10. Conditions: 79 SH2 domains, 100 μg peptide in PBST, duplicate spots; not quantitative. The method, then: as §1
Test [3] concerns Grb2. To be noted: 79 SH2 domains, 100 μg peptide in PBST, duplicate spots; not quantitative. The protocol:
as §1

Test [4] has as its system SH2D2A. Conditions: 79 SH2 domains, 100 μg peptide in PBST, duplicate spots; not quantitative.
Test [5] deals with other SH2 domains in the microarray with leucine present at this position. To be noted: 79 SH2 domains, 100 μg peptide in PBST; SH2 domains other than Grb7 and SH2D2A with leucine at βD6.
The subject of test [6] is Grb7-SH2 domain. Further details: method as in 3 sources, one per row (each row's own in cited_ref): ref Ambaye et al., 2011a; Watson et al., 2017 ||| ref Gunzburg et al., 2012 ||| ref Janes et al., 1997; Gunzburg et al., 2012. Conditions: ref Janes et al., 1997; Gunzburg et al., 2012; cited from earlier work. An excerpt: Grb7 is a signaling adaptor protein that has been specifically targeted through th ...

Test [7] deals with SH2 domain of Grb10. To be noted: SPR; ref Gunzburg et al., 2012; cited from earlier work.
The target of test [8] is T1, Grb2-SH2 WT (Homo sapiens, UniProt P62993).
T1 construct: Grb7-SH2 (residues 415-532) and Grb2-SH2 (residues 58-160) were incorporated into the pGex2T plasmid; made in house; host or cells: E. coli BL21(DE3)pLysS
The test can be described thus: SPR binding of G7-18NATE to immobilized GST-Grb2-SH2 WT. For orientation: In SPR one partner is held on a chip, and binding of the other changes the refractive index at the surface.

The test system of test [9] is Grb2 / HER3. Also on record: method as in Pero et al., 2002. Conditions: ref Pero et al., 2002; cited from earlier work.
In test [10] the test system is SH2 domain of Grb14. To be noted: SPR; ref Gunzburg et al., 2012; cited from earlier work.
Test [11] has as its target T2, Grb2-SH2 S90R (Homo sapiens, UniProt P62993, S90R).
T2 construct: Grb7-SH2 (residues 415-532) and Grb2-SH2 (residues 58-160) were incorporated into the pGex2T plasmid; made in house; host or cells: E. coli BL21(DE3)pLysS
The test can be described thus: SPR binding of G7-18NATE to immobilized GST-Grb2-SH2 S90R mutant.

Test [12] has as its target T3, Grb7-SH2 R462S, GST fusion (residues 415-532) (UniProt Q14451 415-532, R462S).
T3 construct: Made by site-directed mutagenesis of the wild-type construct; primers in Supplementary Material; also called R462S Grb7-SH2; R462S mutant
The test can be described thus: SPR; Biacore T100, CM5 chip; GST-SH2 fusion captured by amine-coupled anti-GST antibody, GST alone on the reference cell; G7-18NATE injected 60 s at 30 μL/min in 150 mM NaPO4, 150 mM NaCl, 1 mM DTT, pH 7.4; equilibrium responses fitted by a single-site binding model. Conditions: both partners purified.

For test [13], the target named is T4, Grb2-SH2 wild-type, GST fusion (residues 58-160) (UniProt P62993 58-160).
T4 construct: Grb2, SH2 domain, residues 58-160, in pGex2T; also called Grb2-SH2 WT; WT Grb2-SH2
The test is described as above. Conditions: both partners purified.

Test [14] has as its target T3, Grb7-SH2 R462S, GST fusion (residues …). The test is described as above. To be noted: both partners purified. This is another data set of the same source.
For test [15], the target named is T5, Grb7-SH2 wild-type, GST fusion (residues 415-532) (UniProt Q14451 415-532).
T5 construct: also called Grb7-SH2 WT; WT Grb7-SH2
T5 sequence (Q14451 415-532): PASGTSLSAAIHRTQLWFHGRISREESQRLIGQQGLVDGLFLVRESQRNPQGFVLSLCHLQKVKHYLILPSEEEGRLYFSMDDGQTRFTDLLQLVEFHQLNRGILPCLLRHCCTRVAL
Described as above. To be noted: both partners purified.

[16] abbreviates: SPR, Biacore T100, single-site binding model, errors are standard error of the fits.
The mark [17] stands for this setting: in words, injection of G7-18NATE over the chip surface.

T3 sequence (Q14451 415-532 R462S): as the sequence (Q14451 415-532) above, with R48S counted along it

Consider “(cyclo-(CH2CO-WFEGYDNTFPC-RRMKWKKK(Biotin))-amide) (sidechain bridge or staple) [G7-18NATE-PB]”, for which the microarray fluorescence entry in test [1], in test [2] and in test [3] was “no observation of fluorescence” in each case. Besides, the “microarray fluorescence / binding” value in [4] is “Fluorescence was observed, although at much lower intensity”.

For the molecule `C[C@@H](O)[C@@H]1NC(=O)[C@H](CC(N)=O)NC(=O)[C@H](CC(=O)O)NC(=O)[C@H](Cc2ccc(O)cc2)NC(=O)CNC(=O)[C@H](CCC(=O)O)NC(=O)[C@H](Cc2ccccc2)NC(=O)[C@H](Cc2c[nH]c3ccccc23)NC(=O)CSC[C@@H](C(N)=O)NC(=O)[C@@H]2CCCN2C(=O)[C@H](Cc2ccccc2)NC1=O` [G7-18NATE], in test [5], the microarray binding result is given as “no ability to be bound”. Also, the “specificity for Grb7-SH2 over Grb2, Grb10 and Grb14 SH2 domains” value in [6] is “specific for the Grb7-SH2 domain over the closely related SH2 domains of Grb2, Grb10, and Grb14”. Also, the “binding to Grb10 SH2 domain” value in [7] is reported as “minimal binding”. Also, the Rmax in test [8] (setting [16]) was 14.2 ± 0.9 RU; in [11] (setting [16]), 41.0 ± 3 RU. Besides, the SPR binding response entry is given as “only a low binding response” in [8] (setting [17]) and “low responses, though slightly higher than seen for Grb2-SH2 WT; also recorded: minimal binding” in [11] (setting [17]). Also, the “effect on Grb2/HER3 interaction” value in test [9] is listed as “no effect”. The “binding to Grb14 SH2 domain” value in test [10] was “minimal binding”. Besides, the “microarray fluorescence / binding” value in [4] is reported as “detectable binding”.

B1: G7-18NATE (cyclo-(CH2CO-WFEGYDNTFPC)-amide) (peptide)
peptide: {CH2CO}-WFEGYDNTFPC-NH2
modifications: thioether N-11
notes: cyclic peptide developed via phage display against the Grb7-SH2 domain; Purity >95% by LC-MS; source: synthetic peptide (standard Fmoc-chemistry), bought: Purar Chemicals (Australia)
B1: the dissociation constant Kd (usually the constant that tells how readily two partners part at equilibrium) was 7.97 µM in [12], more than 125 µM in test [13], 7.98 µM in [14] and 2.43 µM in [15].
